Source: ChEMBL document CHEMBL2331398, “Synthesis and growth inhibition activity of fluorinated derivatives of tamoxifen” (2013)

Tests used:
Format in all cases: functional
[1] = test system: HT-29; test: Growth inhibition of human HT-29 cells
[2] = test system: M21; test: Growth inhibition of human M21 cells
[3] = test system: MDA-MB-231; test: Growth inhibition of estrogen-independent human MDA-MB-231 cells
[4] = test system: MCF7; test: Growth inhibition of estrogen-dependent human MCF7 cells

Row | GI50 [1] | GI50 [3] | GI50 [4] | SMILES | GI50 [2]
1 | 59.8 µM | 105 µM | 71.7 µM | Oc1ccc(C(=C(F)c2cccc(C(F)(F)F)c2)c2ccccc2)cc1 | 89.6 µM
2 | 8.7 µM | 7.3 µM | 3.6 µM | CN(C)CCOc1ccc(/C(=C(/F)c2ccccc2)c2ccc(O)cc2)cc1 | 4.4 µM
3 | 8.9 µM | 10.6 µM | 5.6 µM | Oc1ccc(/C(=C(\F)c2ccccc2)c2ccc(OCCN3CCCC3)cc2)cc1 | 6.8 µM
4 | 6.9 µM | 12.6 µM | 7.4 µM | OCc1ccc(/C(=C(\F)c2ccccc2)c2ccc(OCCN3CCCCC3)cc2)cc1 | 5.9 µM
5 | 5.9 µM | 10.6 µM | 5.6 µM | O=Cc1ccc(/C(=C(\F)c2ccccc2)c2ccc(OCCN3CCCCC3)cc2)cc1 | 4.2 µM
6 | 7.3 µM | 12.5 µM | 8.8 µM | F/C(=C(/c1ccccc1)c1ccc(OCCN2CCCCC2)cc1)c1ccccc1 | 5.6 µM
7 | 10.5 µM | 22.2 µM | 10.4 µM | CN(C)CCOc1ccc(/C(=C(/F)c2ccccc2)c2ccccc2)cc1 | 13.5 µM
8 | 40.3 µM | > 100 µM | 41.7 µM | F/C(=C(\c1ccccc1)c1ccc(OCCN2CCCC2)cc1)c1ccccc1 | 44 µM
9 | 8.7 µM | 14.4 µM | 6.5 µM | F/C(=C(\c1ccccc1)c1ccc(OCCN2CCCCC2)cc1)c1ccccc1 | 5.8 µM
10 | 8.9 µM | 25.8 µM | 8.4 µM | Oc1ccc(/C(=C(\F)c2ccccc2)c2ccc(OCCN3CCCCC3)cc2)cc1 | 15.9 µM
11 | 32.8 µM | 46.9 µM | 21.3 µM | Oc1ccc(C(=C(F)c2ccccc2)c2ccccc2)cc1 (mixture of isomers) | 53 µM
12 | 9.5 µM | 18.8 µM |  | CC/C(=C(\c1ccccc1)c1ccc(OCCN(C)C)cc1)c1ccccc1 [TAMOXIFEN] | 11 µM
